Legend:
Format in all cases: biochemical
[1] = biological target: T1, human 20S proteasome subunit β5 (Homo sapiens, UniProt P28074); assay: cryo-EM structure at […] Å; IC50 with Suc-LLVY-amc
T1 construct: gene PSMB5; human constitutive 20S proteasome (h20S), whole complex; catalytic N-terminal Thr1; with other subunits of the 20S proteasome (α1–α7, β1–β7)

[2] = tested on: T2, Trichomonas vaginalis 20S proteasome (Tv20S) subunit β5; assay: IC50 for the individual proteolytic subunit (Figure S5)
T2 construct: Tv20S, whole complex; with other subunits of the Tv20S proteasome

[3] = biological target: T3, human 20S proteasome subunit β1 (Homo sapiens, UniProt P28072); assay: cryo-EM structure at […] Å; IC50 with Z-LLE-amc
T3 construct: gene PSMB6; human constitutive 20S proteasome (h20S), whole complex; catalytic N-terminal Thr1; with other subunits of the 20S proteasome (α1–α7, β1–β7)

[4] = biological target: T4, human 20S proteasome subunit β2 (Homo sapiens, UniProt Q99436); assay: cryo-EM structure at […] Å; IC50 with Z-VLR-amc
T4 construct: gene PSMB7; human constitutive 20S proteasome (h20S), whole complex; catalytic N-terminal Thr1; with other subunits of the 20S proteasome (α1–α7, β1–β7)

[5] = tested on: T5, Trichomonas vaginalis 20S proteasome (Tv20S) subunit β1; assay: IC50 for the individual proteolytic subunit (Figure S5)
T5 construct: Tv20S, whole complex; with other subunits of the Tv20S proteasome

T4 sequence (Q06323 whole entry): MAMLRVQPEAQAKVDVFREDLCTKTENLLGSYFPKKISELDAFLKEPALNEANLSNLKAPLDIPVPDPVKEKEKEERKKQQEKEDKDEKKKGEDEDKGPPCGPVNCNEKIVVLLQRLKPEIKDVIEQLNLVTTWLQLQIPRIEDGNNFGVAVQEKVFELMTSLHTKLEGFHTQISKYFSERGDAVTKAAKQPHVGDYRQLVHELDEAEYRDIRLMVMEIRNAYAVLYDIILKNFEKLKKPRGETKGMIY
T4 sequence (Q99436 44-277): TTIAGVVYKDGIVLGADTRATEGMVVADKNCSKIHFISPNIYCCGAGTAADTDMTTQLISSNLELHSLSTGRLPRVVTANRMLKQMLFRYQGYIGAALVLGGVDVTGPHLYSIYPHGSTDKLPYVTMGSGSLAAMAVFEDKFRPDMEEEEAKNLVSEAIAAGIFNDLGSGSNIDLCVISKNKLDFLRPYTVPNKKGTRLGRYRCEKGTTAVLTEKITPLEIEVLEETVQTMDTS
T1 sequence (Q06323 whole entry): as the sequence (Q06323 whole entry) above
T1 sequence (P28074 60-263): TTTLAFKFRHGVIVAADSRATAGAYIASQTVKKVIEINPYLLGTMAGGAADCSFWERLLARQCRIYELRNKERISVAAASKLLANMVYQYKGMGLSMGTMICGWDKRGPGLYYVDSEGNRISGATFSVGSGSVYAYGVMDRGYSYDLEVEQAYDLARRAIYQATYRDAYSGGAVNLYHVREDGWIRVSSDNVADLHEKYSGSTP
T3 sequence (Q06323 whole entry): as the sequence (Q06323 whole entry) above
T3 sequence (P28072 35-239): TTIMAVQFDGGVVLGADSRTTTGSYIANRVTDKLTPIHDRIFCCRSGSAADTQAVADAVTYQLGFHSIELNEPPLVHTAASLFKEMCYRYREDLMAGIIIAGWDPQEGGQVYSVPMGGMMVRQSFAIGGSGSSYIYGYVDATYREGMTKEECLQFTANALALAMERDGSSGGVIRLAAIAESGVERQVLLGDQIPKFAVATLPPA

C[C@@]12OC(=O)[C@]1([C@@H](O)[C@@H]1C=CCCC1)NC(=O)[C@@H]2CCCl [MZB, Marizomib]
IC50 [1]: 18.5 nM
IC50 [2]: 3.9 ± 0.2 nM
IC50 [3]: 597 nM
IC50 [4]: 326 nM
IC50 [5]: 244 ± 72.2 nM

— paper PMC11946101, “Structural Insights into Salinosporamide a Mediated Inhibition of the Human 20S Proteasome” (Molecules, 2025)
